Laboratory results published in patent publication US9340774B2, “Tumor-initiating cells and methods for using same” (Wyeth LLC, priority 2009, dated 2016).

Legend:
[1] = tested on: H460T CD24−/lowCD44+ and CD24highCD44+ cells; experiment: Four-day MTS cell viability assay on sorted cells; assay type: cell-based, human; settings: 96 hours of drug exposure, FIG. 10A
Description: The CD24^−/lowCD44^+ population was more sensitive to an anti-5T4 antibody-drug conjugate than the CD24^highCD44^+ population in an cell viability assay and a colony growth assay. For each assay, antibody-calicheamicin AcBut-linked (AcBut-AcBut-[4-(4-acetylphenoxy) butanoic acid]) conjugates were prepared as described (Hamann et al., Bioconjug. Chem., 2002, 13: 47-58). The effect of anti-5T4 huH8 antibody-drug conjugate or anti-CD22 antibody-drug conjugate on sorted cells was assessed using a cellular viability indicator ((3-(4,5-dimethylthiazol-2-yl)-5([…])-2-(4-sulfophenyl)-2H-tetrazolium (MTS) (Promega of Madison, Wis., USA) to determine the number of surviving cells following exposure to the drug treatment. Cells were sorted 18 hours prior to start of assay. Cells were seeded in 96-well microtiter plates at a density of 10000 cells per well and exposed to various concentrations of the drug. Following determination of the number of viable cells surviving 96 hours of drug exposure, the IC50 of each treatment was calculated based on the logistic regression parameters derived from the dose-response curves. IC50 values were calculated by logistic non-linear regression and are reported as the calicheamicin dimethyl hydrazide (CalichDMH) concentration from each treatment group that causes 50% loss of cell viability.

[2] = tested on: H460T CD24−/lowCD44+ and CD24highCD44+ cells; experiment: Colony formation (clonogenic) assay on sorted cells; assay type: cell-based, human; settings: 72 hours drug exposure, 200 cells replated, colonies after 8 days; FIG. 10B
Description: To perform a colony formation assay, cells were seeded in 24 well plate at a density of 5,000 cells per well. Twenty-four hours after seeding the cells were exposed to various concentrations of (0.000097, 0.000390, 0.00156, 0.00625, 0.025, 0.1, 0.4 ng calicheamicin equivalents/ml) of anti-5T4 H8-AcBut conjugate, anti-CD22 AcBut conjugate, or calicheamicin alone. Seventy-two hours after the drug exposure, cells were trypsinized, counted and 200 cells were plated in 6 well plates. After 8 days, the colonies were fixed and stained with methylene blue. The number of colonies per well was counted using a Stereoscope.

60274 xenografts = experiment: Tumor regression of NSCLC primary implant xenografts, line 60274; assay type: in vivo, mice; settings: maximum tolerable dose
Description: Nude (for 37622) or nod-scid (for 60274) mice were injected subcutaneously between the shoulder blades with fragments of low-passage primary implants. When the tumors reached the mass of 0.2 to 0.5 g, the tumors were staged to ensure uniformity of the tumor mass between various treatment groups prior to the administration of therapy. Anti-5T4 huH8 antibody and anti-CD33 p67.6 antibody were conjugated to calicheamicin via an amide linker as described (Hamann et al., Bioconug. Chem., 2002, 13: 40-46). The “amide” linker restricts the release of calicheamicin to cells that internalize the antibody-drug conjugate (Hamann et al., Bioconug. Chem., 2002, 13: 40-46). […] Tumors were measured at least once a week and their mass was as volume=0.5×(tumor width^2)(tumor length). Mean tumor volume (±SEM) for each treatment group was calculated and compared to the vehicle-treated group for statistical significance using a one-sided t-test, with the error term for the t-test based on the pooled variance across all treatment groups. Tumor values for each treatment group were recorded up to 120 days after the initiation of treatment or until either tumor-bearing mice died or the tumors grew to 15% of the body weight at which time these mice were euthanized according to institutional regulations.

[3] = tested on: H460T CD24−/lowCD44+ and CD24highCD44+ cells; experiment: Differential drug response of sorted H460T populations; assay type: cell-based, human
Description: H460 cells were obtained from the American Type Culture Collection (ATCC) in Manassas, Va., United States of America. The H460 cell line was derived from the pleural fluid of a patient with large cell cancer of the lung (Gazdar et al., Science, 1989, 246: 491494). HCC2429 cells were obtained from J. Minna. See Haruki et al., J. Med. Genet., 2005, 42(7):558-64. […] Higher-passage cells are referred to as H460T to distinguish them from the low-passage H460 that were originally obtained from ATCC. All cells were incubated at 37° Celsius with 5.0% carbon dioxide (CO2). H460T cells were cultured in RPMI-1640 (GIBCO®, available from Invitrogen of Carlsbad, Calif., USA). See Moore et al., JAMA, 1967, 199: 519-524, 10% fetal bovine serum (FBS, GIBCO®, available from Invitrogen of Carlsbad, Calif., USA), 2 mM additional glutamine, 100 IU/mipenicillin, 100 μg/ml streptomycin, 1 mM sodium pyruvate, 0.1% sodium bicarbonate, 045% additional glucose, and 10 mM 4-(2-hydroxyethyl)-1-piperazineethanesulfonic acid (HEPES). HCC2429 cells were cultured in RPMI-1640, 10% FBS, 2 mM additional glutamine, 100 IU/ml penicillin, 100 μg/ml streptomycin. Karyotyping and short tandem repeat (STR) analysis of H460T confirmed its H460 origin, however the Y chromosome was absent in H460T cells and present in most H460 cells. […]

5T4 = experiment: Anti-5T4 immunoblot of sorted cells treated with all-trans retinoic acid; assay type: cell-based, human; settings: CD24−/lowCD44+ cells; 10 μM; 72 hours; 0.5% FBS medium; FIG. 6B
Description: To determine 5T4 expression under conditions of growth and differentiation, cells were harvested at several time points, and protein extracts were subjected to immunoblot analysis. Cells were washed with PBS and lysed in 0.5% v/v NP40 in 25 mM Tris-buffered saline pH 7.4 (TBS). After protein estimation (MICROBCA™ Protein Assay Kit, Pierce of Rockford, Ill., USA), the lysates were mixed with non-reducing Laemmli sample buffer (Biorad of Hercules, Calif., USA) and 10 μg samples were loaded in each well of a non-reducing 4-20% polyacrylamide gradient gel (NOVEX®, available from Invitrogen of Carlsbad, Calif., USA). The samples were run for two to three hours at 125 volts and transferred to a PVDF (polyvinylidene fluoride) membrane by means of a Novex® electrophoresis transfer system. The membrane was blocked overnight with 5% milk in Tris-buffered saline Tween-20 (TBST) with 1% goat serum, probed with anti-5T4 antibody H8 at 1 μg/ml in 5% milk in TBST, washed and probed with HRP conjugated goat anti-mulgG at 1:5,000 dilution. The ECL detection system was used (Amersham of Burlington, Mass., USA).
To further assess 5T4 expression in tumor cell lines, sorted cells were treated with all-trans retinoic acid to induce differentiation and then subjected to immunoblot analysis. […]

For calicheamicin, the “sensitivity of CD24−/lowCD44+ cells versus CD24highCD44+ cells (IC50 as CalichDMH concentration)” value [1] was “No difference between the two populations” and the “sensitivity of CD24−/lowCD44+ cells versus CD24highCD44+ cells (number of colonies)” value [2] was “No difference between the two populations”.
`N.N.[Cl][Pt][Cl]` [cisplatin] was tested, and the “tumor size of 60274 xenografts” value (60274 xenografts; FIG. 12C) was “reduced tumor size transiently” and the “regrowth of 60274 tumors” value (60274 xenografts; after completion of the dosing regimen) was “quickly regrew”.
With `CC[C@@]1(O)C(=O)OCc2c1cc1n(c2=O)Cc2cc3ccccc3nc2-1` [camptothecin] the “response of CD24−/lowCD44+ versus CD24highCD44+ populations” value [3] was “responded equally”.
With `O=c1[nH]cc(F)c(=O)[nH]1` [5-fluoruracil] the “response of CD24−/lowCD44+ versus CD24highCD44+ populations” value [3] was “responded equally”.
In the case of `CC1=C(/C=C/C(C)=C/C=C/C(C)=C/C(=O)O)C(C)(C)CCC1` [all-trans retinoic acid], the “5T4 expression (immunoblot)” value (5T4) is reported as “dramatically reduced”.
